Experimental data published in ChEMBL document CHEMBL5321219, “Selective degradation of cellular BRD3 and BRD4-L promoted by PROTAC molecules in six cancer cell lines” (Eur J Med Chem, 2023).
Activity calls are given as the source filed them. The rule behind the calls is not given here.

Experiments:
MM1.S [1] = experiment: Induction of cell cycle arrest in human MM1.S cells assessed as accumulation of cells at S phase at 3 nM incubated for 24 hrs by flow cytometry analysis (reference value: 22.37%); format: functional
[2] = target: Bromodomain-containing protein 3 (Homo sapiens, UniProt Q15059); experiment: Binding affinity to recombinant human BRD3 BD1 (24 to 144 residues) assessed as inhibition constant by fluorescence polarization binding assay
Chain of Bromodomain-containing protein 3 (Q15059 whole entry, the tested form may be a part): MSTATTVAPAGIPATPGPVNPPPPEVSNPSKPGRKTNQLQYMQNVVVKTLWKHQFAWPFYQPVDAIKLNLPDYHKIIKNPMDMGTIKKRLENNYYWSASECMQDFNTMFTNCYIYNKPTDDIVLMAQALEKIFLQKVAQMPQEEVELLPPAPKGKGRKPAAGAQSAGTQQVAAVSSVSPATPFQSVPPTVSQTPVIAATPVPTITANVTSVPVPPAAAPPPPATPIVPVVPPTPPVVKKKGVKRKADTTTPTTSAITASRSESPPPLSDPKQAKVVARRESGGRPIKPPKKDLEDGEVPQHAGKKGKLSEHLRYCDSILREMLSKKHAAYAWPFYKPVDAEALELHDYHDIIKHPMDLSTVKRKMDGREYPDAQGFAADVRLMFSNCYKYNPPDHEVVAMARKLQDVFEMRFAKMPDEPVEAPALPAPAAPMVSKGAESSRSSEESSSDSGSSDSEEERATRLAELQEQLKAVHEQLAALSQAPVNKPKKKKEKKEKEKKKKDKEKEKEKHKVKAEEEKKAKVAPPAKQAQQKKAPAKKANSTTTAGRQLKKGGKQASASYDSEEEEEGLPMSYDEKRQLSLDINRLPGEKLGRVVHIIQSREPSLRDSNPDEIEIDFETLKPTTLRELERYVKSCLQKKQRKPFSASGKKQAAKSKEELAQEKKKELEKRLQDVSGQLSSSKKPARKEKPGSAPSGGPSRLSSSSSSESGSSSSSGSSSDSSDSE

HepG2 = experiment: Antiproliferative activity against human HepG2 cells assessed as cell growth inhibition measured after 4 days by CCK-8 assay; format: functional, cell-based; details: HepG2, 96 h
MM1.S [3] = experiment: Induction of cell cycle arrest in human MM1.S cells assessed as accumulation of cells at G1 phase at 300 nM incubated for 24 hrs by flow cytometry analysis (reference value: 56.32%); format: functional
MM1.S [4] = experiment: Induction of cell cycle arrest in human MM1.S cells assessed as accumulation of cells at G2 phase at 300 nM incubated for 24 hrs by flow cytometry analysis (reference value: 14.68%); format: functional
MM1.S [5] = experiment: Induction of cell cycle arrest in human MM1.S cells assessed as accumulation of cells at G1 phase at 3 nM incubated for 24 hrs by flow cytometry analysis (reference value: 56.32%); format: functional
[6] = target: T1, Protein cereblon/Bromodomain-containing protein 2 (Homo sapiens) (UniProt P25440+Q96SW2); experiment: PROTAC activity at CRBN/BRD2 in human MCF7 cells assessed as induction of protein degradation at 1 to 300 nM measured after 24 hrs by Western blot analysis; format: cell-based; details: dose 1-300 nM
T1 sequence (P25440 whole entry, looked up): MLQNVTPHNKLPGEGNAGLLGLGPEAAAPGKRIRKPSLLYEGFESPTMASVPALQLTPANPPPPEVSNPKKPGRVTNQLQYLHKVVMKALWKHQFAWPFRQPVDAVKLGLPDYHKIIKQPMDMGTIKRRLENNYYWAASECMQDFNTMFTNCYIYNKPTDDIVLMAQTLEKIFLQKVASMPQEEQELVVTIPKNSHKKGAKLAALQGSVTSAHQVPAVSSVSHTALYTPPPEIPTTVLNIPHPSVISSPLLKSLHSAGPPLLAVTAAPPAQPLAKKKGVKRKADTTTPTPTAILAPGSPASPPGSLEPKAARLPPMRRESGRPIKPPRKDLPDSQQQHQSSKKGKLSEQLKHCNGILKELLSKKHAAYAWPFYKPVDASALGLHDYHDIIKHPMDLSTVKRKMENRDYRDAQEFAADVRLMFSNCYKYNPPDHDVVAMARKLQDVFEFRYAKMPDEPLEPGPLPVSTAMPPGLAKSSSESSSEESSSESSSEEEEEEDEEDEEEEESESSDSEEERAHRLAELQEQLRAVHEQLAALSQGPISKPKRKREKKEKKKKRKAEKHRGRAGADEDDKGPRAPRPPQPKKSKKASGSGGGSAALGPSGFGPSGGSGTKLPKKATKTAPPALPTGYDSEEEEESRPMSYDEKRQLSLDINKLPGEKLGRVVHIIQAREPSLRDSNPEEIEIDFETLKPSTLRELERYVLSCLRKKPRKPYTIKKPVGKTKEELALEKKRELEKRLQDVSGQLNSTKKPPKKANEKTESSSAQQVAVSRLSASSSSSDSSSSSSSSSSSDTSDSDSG
T1 sequence (Q96SW2 whole entry, looked up): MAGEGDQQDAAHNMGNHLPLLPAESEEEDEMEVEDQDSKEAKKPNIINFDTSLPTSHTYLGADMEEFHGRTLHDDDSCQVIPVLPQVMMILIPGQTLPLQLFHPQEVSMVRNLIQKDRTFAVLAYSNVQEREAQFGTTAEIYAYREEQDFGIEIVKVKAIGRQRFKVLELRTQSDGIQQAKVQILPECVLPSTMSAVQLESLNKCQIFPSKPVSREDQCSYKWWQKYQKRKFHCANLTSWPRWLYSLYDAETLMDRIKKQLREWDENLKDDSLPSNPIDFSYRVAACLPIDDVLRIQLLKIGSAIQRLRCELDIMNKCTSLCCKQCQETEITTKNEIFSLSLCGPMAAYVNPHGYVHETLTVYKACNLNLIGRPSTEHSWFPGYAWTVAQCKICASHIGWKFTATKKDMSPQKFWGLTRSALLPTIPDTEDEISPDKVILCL

[7] = target: T2, Protein cereblon/Bromodomain-containing protein 3 (Homo sapiens) (UniProt Q15059+Q96SW2); experiment: PROTAC activity at CRBN/BRD3 in human MCF7 cells assessed as induction of protein degradation measured after 24 hrs by Western blot analysis; format: cell-based; details: dose 1-300 nM
T2 sequence (Q15059 2-726 limits assumed): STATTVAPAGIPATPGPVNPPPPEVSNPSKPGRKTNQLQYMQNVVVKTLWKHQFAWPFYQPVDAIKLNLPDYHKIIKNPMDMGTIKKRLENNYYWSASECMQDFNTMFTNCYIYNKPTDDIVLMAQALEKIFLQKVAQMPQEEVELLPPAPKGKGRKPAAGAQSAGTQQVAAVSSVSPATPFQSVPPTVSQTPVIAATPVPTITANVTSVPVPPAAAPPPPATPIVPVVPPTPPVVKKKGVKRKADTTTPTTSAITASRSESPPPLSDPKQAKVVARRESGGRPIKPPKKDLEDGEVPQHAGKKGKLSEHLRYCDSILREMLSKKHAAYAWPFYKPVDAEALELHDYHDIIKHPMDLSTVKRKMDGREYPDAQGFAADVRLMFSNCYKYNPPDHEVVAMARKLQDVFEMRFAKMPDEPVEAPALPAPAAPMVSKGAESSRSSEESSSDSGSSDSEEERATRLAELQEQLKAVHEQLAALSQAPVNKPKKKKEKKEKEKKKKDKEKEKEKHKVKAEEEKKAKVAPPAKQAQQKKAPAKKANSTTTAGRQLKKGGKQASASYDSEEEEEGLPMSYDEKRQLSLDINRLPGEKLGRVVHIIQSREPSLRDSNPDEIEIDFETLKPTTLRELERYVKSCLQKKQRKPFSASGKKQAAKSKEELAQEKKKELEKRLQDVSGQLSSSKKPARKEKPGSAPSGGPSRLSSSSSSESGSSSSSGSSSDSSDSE
T2 sequence (Q96SW2 whole entry partner): as the sequence (Q96SW2 whole entry, looked up) above

[8] = target: T2, Protein cereblon/Bromodomain-containing protein 3 (Homo sapiens); experiment: (§1) PROTAC activity at CRBN/BRD3 in human MM1.S cells assessed as induction of protein degradation at 30 nM pretreated with lenalidomide for 2 hrs followed by compound addition and measured after 4 hrs by Western blot analysis; format: cell-based
MM1.S [9] = experiment: Induction of cell cycle arrest in human MM1.S cells assessed as accumulation of cells at G2 phase at 10 nM incubated for 24 hrs by flow cytometry analysis (reference value: 14.68%); format: functional
[10] = target: T2, Protein cereblon/Bromodomain-containing protein 3 (Homo sapiens); experiment: PROTAC activity at CRBN/BRD3 in human MM1.S cells assessed as induction of protein degradation at 30 nM by Western blot analysis; format: cell-based; details: TDE = time-dependent effect
[11] = target: T2, Protein cereblon/Bromodomain-containing protein 3 (Homo sapiens); experiment: PROTAC activity at CRBN/BRD3 in human MCF7 cells assessed as induction of protein degradation at 30 nM by Western blot analysis; format: cell-based; details: time 1-3 hrs, TDE = time-dependent effect
MM1.S [12] = experiment: Induction of cell cycle arrest in human MM1.S cells assessed as accumulation of cells at S phase at 30 nM incubated for 24 hrs by flow cytometry analysis (reference value: 22.37%); format: functional
[13] = target: T2, Protein cereblon/Bromodomain-containing protein 3 (Homo sapiens); experiment: PROTAC activity at CRBN/BRD3 in human U-937 cells assessed as induction of protein degradation by Western blot analysis; format: cell-based
MM1.S [14] = experiment: Induction of cell cycle arrest in human MM1.S cells assessed as accumulation of cells at G1 phase at 30 nM incubated for 24 hrs by flow cytometry analysis (reference value: 56.32%); format: functional
[15] = target: T2, Protein cereblon/Bromodomain-containing protein 3 (Homo sapiens); experiment: PROTAC activity at CRBN/BRD3 in human HGC-27 cells assessed as induction of protein degradation measured after 24 hrs by Western blot analysis; format: cell-based; details: dose 0.1-30 nM
MCF7 = experiment: Antiproliferative activity against human MCF7 cells assessed as cell growth inhibition measured after 4 days by CCK-8 assay; format: functional, cell-based; details: MCF7, 96 h
MV4-11 = experiment: Antiproliferative activity against human MV4-11 cells assessed as cell growth inhibition measured after 3 days by CellTitre-Glo assay; format: functional, cell-based; details: MV4-11, 72 h
MM1.S [16] = experiment: Induction of cell cycle arrest in human MM1.S cells assessed as accumulation of cells at G2 phase at 1 nM incubated for 24 hrs by flow cytometry analysis (reference value: 14.68%); format: functional
[17] = target: T1, Protein cereblon/Bromodomain-containing protein 2 (Homo sapiens); experiment: PROTAC activity at CRBN/BRD2 in human U-937 cells assessed as induction of protein degradation by Western blot analysis; format: cell-based
A549 = experiment: Antiproliferative activity against human A549 cells assessed as cell growth inhibition measured after 4 days by CCK-8 assay; format: functional, cell-based; details: A549, 96 h
[18] = target: T3, Protein cereblon/Bromodomain-containing protein 4 (Homo sapiens) (UniProt O60885+Q96SW2); experiment: PROTAC activity at CRBN/BRD4-L in human MCF7 cells assessed as induction of protein degradation at 30 nM measured after 3 to 6 hrs by Western blot analysis; format: cell-based; details: time 3-6 hrs
T3 sequence (Q96SW2 whole entry, looked up, other chains not shown): as the sequence (Q96SW2 whole entry, looked up) above

[19] = target: T3, Protein cereblon/Bromodomain-containing protein 4 (Homo sapiens); experiment: PROTAC activity at CRBN/BRD4-S in human MCF7 cells assessed as induction of protein degradation at 1 to 300 nM measured after 24 hrs by Western blot analysis; format: cell-based; details: dose 1-300 nM
[20] = target: T3, Protein cereblon/Bromodomain-containing protein 4 (Homo sapiens); experiment: as §1, with “CRBN/BRD4-L” for “CRBN/BRD3”, “(6R)-N-(4-chlorophenyl)-1-methyl-8-(1-methyl-1H-pyrazol-4-yl)-5,6-dihydro-4H-benzo[f][1,2,4]triazolo[4,3-a]azepin-6-amine” for “lenalidomide”; format: cell-based
[21] = target: T3, Protein cereblon/Bromodomain-containing protein 4 (Homo sapiens); experiment: PROTAC activity at CRBN/BRD4-L in human MM1.S cells assessed as induction of protein degradation at 30 nM pretreated with lenalidomide for 2 hrs followed by compound addition and measured after 4 hrs by Western blot analysis; format: cell-based
[22] = target: T2, Protein cereblon/Bromodomain-containing protein 3 (Homo sapiens); experiment: PROTAC activity at CRBN/BRD3 in human MM1.S cells assessed as induction of protein degradation at 30 nM pretreated with 0.2 to 10 uM MG132 for 2 hrs followed by compound addition and measured after 4 hrs by Western blot analysis; format: cell-based
[23] = target: T2, Protein cereblon/Bromodomain-containing protein 3 (Homo sapiens); experiment: PROTAC activity at CRBN/BRD3 in human MCF7 cells assessed as induction of protein degradation at 30 nM measured after 3 to 6 hrs by Western blot analysis; format: cell-based; details: time 3-6 hrs
HeLa = experiment: Antiproliferative activity against human HeLa cells assessed as cell growth inhibition measured after 4 days by CCK-8 assay; format: functional, cell-based; details: 96 h
[24] = target: T1, Protein cereblon/Bromodomain-containing protein 2 (Homo sapiens); experiment: PROTAC activity at CRBN/BRD2 in human HepG2 cells assessed as induction of protein degradation at 10 to 3000 nM measured after 24 hrs by Western blot analysis; format: cell-based; details: dose 10-3000 nM
[25] = target: T3, Protein cereblon/Bromodomain-containing protein 4 (Homo sapiens); experiment: PROTAC activity at CRBN/BRD4-S in human HepG2 cells assessed as induction of protein degradation at 10 to 3000 nM measured after 24 hrs by Western blot analysis; format: cell-based; details: dose 10-3000 nM
MM1.S [26] = experiment: Downregulation of BRD4 expression in human MM1.S cells by proteomic analysis; format: functional, cell-based
[27] = target: T3, Protein cereblon/Bromodomain-containing protein 4 (Homo sapiens); experiment: PROTAC activity at CRBN/BRD4-L in human MM1.S cells assessed as induction of protein degradation at 30 nM measured after 3 to 6 hrs by Western blot analysis; format: cell-based; details: time 3-6 hrs
[28] = target: T3, Protein cereblon/Bromodomain-containing protein 4 (Homo sapiens); experiment: PROTAC activity at CRBN/BRD4-S in human U-937 cells assessed as induction of protein degradation by Western blot analysis; format: cell-based
[29] = target: T2, Protein cereblon/Bromodomain-containing protein 3 (Homo sapiens); experiment: PROTAC activity at CRBN/BRD3 in human HGC-27 cells assessed as induction of protein degradation at 30 nM measured after 8 to 24 hrs by Western blot analysis; format: cell-based; details: time 8-24 hrs

- Ki [2]: 0.012 µM
- IC50 (HepG2): 17.2 µM
- Activity [6]: inactive
- Activity [7]: Dose-Dependent Effect
- Activity [8]: inactive
- Activity [10]: Tde
- Activity [11]: Tde
- Activity [13]: inactive
- Activity [15]: Dose-Dependent Effect
- IC50 (MCF7): 0.23 µM
- IC50 (MV4-11): 0.00631 µM
- Activity [17]: Dose-Dependent Effect
- IC50 (A549): 14.3 µM
- Activity [18]: Active
- Activity [19]: inactive
- Activity [20]: inactive
- Activity [21]: inactive
- Activity [22]: inactive
- Activity [23]: Active
- IC50 (HeLa): 6.96 µM
- Activity [24]: inactive
- Activity [25]: inactive
- Activity [27]: Active
- Activity [28]: Dose-Dependent Effect
- Activity [29]: Active
Compound: Cc1nnc2n1-c1ccc(-c3ccc(CNCCCCc4cccc5c4CN(C4CCC(=O)NC4=O)C5=O)cc3)cc1C(Nc1ccc(Cl)cc1)CC2 (centres undefined)
- Activity (MM1.S [1]): 17.72%
- Activity (MM1.S [3]): 68.85%
- Activity (MM1.S [4]): 15.38%
- Activity (MM1.S [5]): 62.34%
- Activity (MM1.S [9]): 17.82%
- Activity (MM1.S [12]): 15.21%
- Activity (MM1.S [14]): 65.17%
- Activity (MM1.S [16]): 15.24%
- Activity (MM1.S [26]): Active
